Source: patent publication US5416191A, “Bradykinin antagonists” (Cortech, Inc., priority 1993, dated 1995)
Peptide text beside a SMILES is read from it.

Assays:
[1] = target: T1, bradykinin receptor of the B2 class (guinea-pig ileum) (Cavia porcellus, UniProt O70526)
T1 sequence (O70526 1-372): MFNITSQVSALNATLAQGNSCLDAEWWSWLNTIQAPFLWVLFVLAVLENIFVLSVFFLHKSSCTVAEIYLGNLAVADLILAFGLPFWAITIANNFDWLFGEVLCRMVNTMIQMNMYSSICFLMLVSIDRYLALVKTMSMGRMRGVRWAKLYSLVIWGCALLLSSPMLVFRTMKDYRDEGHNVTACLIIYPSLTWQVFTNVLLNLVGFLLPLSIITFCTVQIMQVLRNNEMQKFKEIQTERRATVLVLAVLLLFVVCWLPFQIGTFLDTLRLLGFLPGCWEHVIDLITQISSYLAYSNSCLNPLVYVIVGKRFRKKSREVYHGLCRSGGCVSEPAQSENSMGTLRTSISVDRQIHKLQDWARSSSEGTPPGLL

[2] = target: T2, bradykinin receptor of the B2 class (rabbit jugular vein) (Oryctolagus cuniculus, UniProt Q28642); assay: Rabbit jugular vein (RJV) in vitro, antagonism of bradykinin; settings: Table A
T2 construct: from tissue; host or cells: rabbit jugular vein
T2 sequence (Q28642 1-367): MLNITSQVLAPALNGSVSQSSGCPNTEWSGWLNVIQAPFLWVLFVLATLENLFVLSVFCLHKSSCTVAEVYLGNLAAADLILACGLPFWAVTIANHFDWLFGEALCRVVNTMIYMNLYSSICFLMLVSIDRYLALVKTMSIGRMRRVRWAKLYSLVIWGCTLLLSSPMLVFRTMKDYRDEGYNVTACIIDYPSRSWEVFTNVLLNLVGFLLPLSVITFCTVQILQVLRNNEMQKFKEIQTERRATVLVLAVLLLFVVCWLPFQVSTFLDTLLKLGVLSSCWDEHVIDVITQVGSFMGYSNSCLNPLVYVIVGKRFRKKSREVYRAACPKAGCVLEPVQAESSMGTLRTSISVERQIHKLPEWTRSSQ
Description: Thus in vitro studies were performed on standard assay systems, namely, guinea-pig ileum (GPI), rat uterus (RU) and rabbit jugular vein (RJV). […] The potency of each compound was assessed as a pA2 value according to the method of Arunlakshana & Schild, Br. J. Pharmacol. Chemother., 14:48-58 (1959). The PA2 can be defined as the negative logarithm of the molar concentration of the antagonist in the presence of which the potency of the agonist is reduced two-fold, i.e. twice the amount of agonist is required to produce a given response in the presence of, than in the absence of, the antagonist. A high potency of antagonism is indicated by a high PA2 value, i.e., a low concentration of antagonist is effective.
The percentage recovery (% Rec) was also determined for compounds with respect to each assay. Percentage recovery is a measure of the duration of action, the lower the percentage recovery value, the greater the duration of action of the compound.

[3] = target: T1, bradykinin receptor of the B2 class (guinea-pig ileum); settings: for pA2 GUINEA PIG ILEUM: Table B, Cys position scan, monomers and BMH dimers
[4] = target: T3, bradykinin receptor of the B2 class (rat uterus) (Rattus norvegicus, UniProt P25023); assay: Rat uterus (RU) in vitro, antagonism of bradykinin; settings: for pA2 MONOMER: P.A. = Partial Agonist
T3 construct: concentration effect curves to bradykinin (BK) on rat uterus in vitro; from tissue; host or cells: rat uterus
T3 sequence (P25023 1-396): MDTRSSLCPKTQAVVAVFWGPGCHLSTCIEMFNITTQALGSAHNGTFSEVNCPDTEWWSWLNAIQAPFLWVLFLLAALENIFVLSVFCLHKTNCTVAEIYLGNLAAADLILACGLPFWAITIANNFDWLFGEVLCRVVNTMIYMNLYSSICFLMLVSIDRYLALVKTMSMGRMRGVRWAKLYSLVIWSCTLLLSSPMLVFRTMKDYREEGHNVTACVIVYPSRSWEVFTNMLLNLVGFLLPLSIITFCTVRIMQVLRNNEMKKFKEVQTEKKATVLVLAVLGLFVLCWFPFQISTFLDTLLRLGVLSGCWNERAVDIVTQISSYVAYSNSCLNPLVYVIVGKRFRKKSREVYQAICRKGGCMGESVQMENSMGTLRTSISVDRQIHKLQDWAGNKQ
Outline: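 Isolated rat uterus; bradykinin antagonism expressed as pA2, the negative log molar antagonist concentration that halves agonist potency. After the highest antagonist concentration, tissues were washed extensively and percent recovery was recorded.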

SMILES	pA2 GUINEA PIG ILEUM [3]	pA2 DIMER ([4]; Table C, rat uterus)	other results
CC(C)C[C@H](NC(=O)[C@@H](Cc1ccccc1)NC(=O)[C@H](CO)NC(=O)[C@H](Cc1ccccc1)NC(=O)CNC(=O)[C@@H]1C[C@@H](O)CN1C(=O)[C@@H]1CCCN1C(=O)[C@H](CCCNC(=N)N)NC(=O)[C@H](N)CCCNC(=N)N)C(=O)N[C@@H](CCCNC(=N)N)C(=O)O [CP-0088, dARG^0 -Arg^1 -Pro^2 -Hyp^3 -Gly^4 -Phe^5 -Ser^6 -(d)Phe^7 -Leu^8 -Arg^9, reference compound] (HELM PEPTIDE1{[dR].R.P.[Hyp].G.F.S.[dF].L.R}$$$$V2.0)	–	–	Kb [1]: 251 nM; Kb ([2]; read-out: RJV pA2 (converted)): 3.16 nM; RJV % REC ([2]; recovery after wash): 90%; GPI % REC ([3]; Table A, recovery after wash, lower = longer duration): 100%; Kb ([4]; Table A, read-out: RU pA2 (converted)): 39.8 nM; RU % REC ([4]; Table A, recovery after wash): 100%; % REC MONOMER ([4]; Table C, rat uterus): 100%; pA2 MONOMER ([4]; Table C, rat uterus): 7.4; RAT UTERUS pA2 ([4]; Table F): 7.4; % RECOVERY ([4]; Table F, rat uterus): 100%
CC(C)C[C@H](NC(=O)[C@H](CSC1CC(=O)N(CCCCCCN2C(=O)CC(SC[C@H](NC(=O)[C@H](CO)NC(=O)[C@H](Cc3ccccc3)NC(=O)CNC(=O)[C@@H]3C[C@@H](O)CN3C(=O)[C@@H]3CCCN3C(=O)[C@H](CCCNC(=N)N)NC(=O)[C@H](N)CCCNC(=N)N)C(=O)N[C@@H](CC(C)C)C(=O)N[C@@H](CCCNC(=N)N)C(=O)O)C2=O)C1=O)NC(=O)[C@H](CO)NC(=O)[C@H](Cc1ccccc1)NC(=O)CNC(=O)[C@@H]1C[C@@H](O)CN1C(=O)[C@@H]1CCCN1C(=O)[C@H](CCCNC(=N)N)NC(=O)[C@H](N)CCCNC(=N)N)C(=O)N[C@@H](CCCNC(=N)N)C(=O)O (stereo partly shown) [CP-0157] (HELM PEPTIDE1{[dR].R.P.[Hyp].G.F.S.C.L.R}|PEPTIDE2{[dR].R.P.[Hyp].G.F.S.C.L.R}|CHEM1{[O=C1CC([*:1])C(=O)N1CCCCCCN1C(=O)CC([*:2])C1=O]}$PEPTIDE1,CHEM1,8:R3-1:R1|PEPTIDE2,CHEM1,8:R3-1:R2$$$V2.0)	Inactive	Inactive	–
CC(C)C[C@H](NC(=O)[C@@H](CSC1CC(=O)N(CCCCCCN2C(=O)CC(SC[C@@H](NC(=O)[C@H](CO)NC(=O)[C@H](Cc3ccccc3)NC(=O)CNC(=O)[C@@H]3C[C@@H](O)CN3C(=O)[C@@H]3CCCN3C(=O)[C@H](CCCNC(=N)N)NC(=O)[C@H](N)CCCNC(=N)N)C(=O)N[C@@H](CC(C)C)C(=O)N[C@@H](CCCNC(=N)N)C(=O)O)C2=O)C1=O)NC(=O)[C@H](CO)NC(=O)[C@H](Cc1ccccc1)NC(=O)CNC(=O)[C@@H]1C[C@@H](O)CN1C(=O)[C@@H]1CCCN1C(=O)[C@H](CCCNC(=N)N)NC(=O)[C@H](N)CCCNC(=N)N)C(=O)N[C@@H](CCCNC(=N)N)C(=O)O (stereo partly shown) [CP-0158] (HELM PEPTIDE1{[dR].R.P.[Hyp].G.F.S.[dC].L.R}|PEPTIDE2{[dR].R.P.[Hyp].G.F.S.[dC].L.R}|CHEM1{[O=C1CC([*:1])C(=O)N1CCCCCCN1C(=O)CC([*:2])C1=O]}$PEPTIDE1,CHEM1,8:R3-1:R1|PEPTIDE2,CHEM1,8:R3-1:R2$$$V2.0)	Inactive	Inactive	–
N=C(N)NCCC[C@@H](N)C(=O)N[C@@H](CCCNC(=N)N)C(=O)N1CCC[C@H]1C(=O)N1C[C@H](O)C[C@H]1C(=O)NCC(=O)N[C@@H](Cc1ccccc1)C(=O)N[C@@H](CO)C(=O)N[C@H](Cc1ccccc1)C(=O)N[C@@H](CSC1CC(=O)N(CCCCCCN2C(=O)CC(SC[C@H](NC(=O)[C@@H](Cc3ccccc3)NC(=O)[C@H](CO)NC(=O)[C@H](Cc3ccccc3)NC(=O)CNC(=O)[C@@H]3C[C@@H](O)CN3C(=O)[C@@H]3CCCN3C(=O)[C@H](CCCNC(=N)N)NC(=O)[C@H](N)CCCNC(=N)N)C(=O)N[C@@H](CCCNC(=N)N)C(=O)O)C2=O)C1=O)C(=O)N[C@@H](CCCNC(=N)N)C(=O)O (stereo partly shown) [CP-0159] (HELM PEPTIDE1{[dR].R.P.[Hyp].G.F.S.[dF].C.R}|PEPTIDE2{[dR].R.P.[Hyp].G.F.S.[dF].C.R}|CHEM1{[O=C1CC([*:1])C(=O)N1CCCCCCN1C(=O)CC([*:2])C1=O]}$PEPTIDE1,CHEM1,9:R3-1:R1|PEPTIDE2,CHEM1,9:R3-1:R2$$$V2.0)	Inactive	Inactive	–
CC(C)C[C@H](NC(=O)[C@@H](Cc1ccccc1)NC(=O)[C@H](CO)NC(=O)[C@H](Cc1ccccc1)NC(=O)CNC(=O)[C@@H]1C[C@@H](O)CN1C(=O)[C@@H]1CCCN1C(=O)[C@H](CCCNC(=N)N)NC(=O)[C@H](N)CCCNC(=N)N)C(=O)N[C@@H](CSC1CC(=O)N(CCCCCCN2C(=O)CC(SC[C@H](NC(=O)[C@H](CC(C)C)NC(=O)[C@@H](Cc3ccccc3)NC(=O)[C@H](CO)NC(=O)[C@H](Cc3ccccc3)NC(=O)CNC(=O)[C@@H]3C[C@@H](O)CN3C(=O)[C@@H]3CCCN3C(=O)[C@H](CCCNC(=N)N)NC(=O)[C@H](N)CCCNC(=N)N)C(=O)O)C2=O)C1=O)C(=O)O (stereo partly shown) [CP-0160] (HELM PEPTIDE1{[dR].R.P.[Hyp].G.F.S.[dF].L.C}|PEPTIDE2{[dR].R.P.[Hyp].G.F.S.[dF].L.C}|CHEM1{[O=C1CC([*:1])C(=O)N1CCCCCCN1C(=O)CC([*:2])C1=O]}$PEPTIDE1,CHEM1,10:R3-1:R1|PEPTIDE2,CHEM1,10:R3-1:R2$$$V2.0)	Inactive	Inactive	–
CC(C)C[C@H](NC(=O)[C@@H](Cc1ccccc1)NC(=O)[C@H](CO)NC(=O)[C@H](Cc1ccccc1)NC(=O)[C@@H](CS)NC(=O)[C@@H]1C[C@@H](O)CN1C(=O)[C@@H]1CCCN1C(=O)[C@H](CCCNC(=N)N)NC(=O)[C@H](N)CCCNC(=N)N)C(=O)N[C@@H](CCCNC(=N)N)C(=O)O [CP-0173] (HELM PEPTIDE1{[dR].R.P.[Hyp].[dC].F.S.[dF].L.R}$$$$V2.0)	Inactive	–	pA2 MONOMER ([4]; Table C, rat uterus): Inactive
CC(C)C[C@H](NC(=O)[C@@H](Cc1ccccc1)NC(=O)[C@H](CO)NC(=O)[C@H](Cc1ccccc1)NC(=O)[C@@H](CSC1CC(=O)N(CCCCCCN2C(=O)CC(SC[C@@H](NC(=O)[C@@H]3C[C@@H](O)CN3C(=O)[C@@H]3CCCN3C(=O)[C@H](CCCNC(=N)N)NC(=O)[C@H](N)CCCNC(=N)N)C(=O)N[C@@H](Cc3ccccc3)C(=O)N[C@@H](CO)C(=O)N[C@H](Cc3ccccc3)C(=O)N[C@@H](CC(C)C)C(=O)N[C@@H](CCCNC(=N)N)C(=O)O)C2=O)C1=O)NC(=O)[C@@H]1C[C@@H](O)CN1C(=O)[C@@H]1CCCN1C(=O)[C@H](CCCNC(=N)N)NC(=O)[C@H](N)CCCNC(=N)N)C(=O)N[C@@H](CCCNC(=N)N)C(=O)O (stereo partly shown) [CP-0203] (HELM PEPTIDE1{[dR].R.P.[Hyp].[dC].F.S.[dF].L.R}|PEPTIDE2{[dR].R.P.[Hyp].[dC].F.S.[dF].L.R}|CHEM1{[O=C1CC([*:1])C(=O)N1CCCCCCN1C(=O)CC([*:2])C1=O]}$PEPTIDE1,CHEM1,5:R3-1:R1|PEPTIDE2,CHEM1,5:R3-1:R2$$$V2.0)	Inactive	Inactive	–
